The nature of series [1]: Cytotoxicity against CB2-expressing CHO cells assessed as cell growth inhibition at 10 uM after 72 hrs by MTS assay. The format is cell-based, Cricetulus griseus. The conditions noted are these: chinese hamster, read-out: GI. A general note: Formazan colour is commonly taken as a measure of viable cells.
A further series deals with Cannabinoid receptor 1 (Homo sapiens, UniProt P21554). Nature of the series: Displacement of [3H]-CP-55940 from human CB1 expressed in CHO cells after 90 mins by TopCount scintillation counting method. The series is classed as cell-based. Background: Displacement assays read how much labelled ligand stays bound in the presence of the test substance.
Sequence of Cannabinoid receptor 1 (P21554 whole entry): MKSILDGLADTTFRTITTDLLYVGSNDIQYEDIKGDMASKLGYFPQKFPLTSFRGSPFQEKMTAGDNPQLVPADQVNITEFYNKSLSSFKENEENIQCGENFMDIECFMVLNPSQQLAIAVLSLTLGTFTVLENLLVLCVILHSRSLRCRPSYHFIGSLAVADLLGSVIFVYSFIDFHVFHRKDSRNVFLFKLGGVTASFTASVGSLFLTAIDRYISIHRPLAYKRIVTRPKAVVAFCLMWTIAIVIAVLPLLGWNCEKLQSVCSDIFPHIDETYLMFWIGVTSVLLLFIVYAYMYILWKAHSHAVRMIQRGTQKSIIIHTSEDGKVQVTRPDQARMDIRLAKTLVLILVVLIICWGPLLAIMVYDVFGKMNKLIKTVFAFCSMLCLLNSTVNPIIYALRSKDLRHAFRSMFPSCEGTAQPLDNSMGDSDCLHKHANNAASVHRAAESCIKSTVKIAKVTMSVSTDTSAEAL
The nature of series [2]: Cytotoxicity against wild-type CHO cells assessed as cell growth inhibition at 10 uM after 72 hrs by MTS assay. The format is cell-based, Cricetulus griseus. To be noted: chinese hamster, read-out: GI.
Series [3] has as its target T1, Cannabinoid receptor 2 (Homo sapiens, UniProt P34972). Put plainly: Displacement of [3H]-CP-55940 from human CB2 expressed in CHO cells after 90 mins by TopCount scintillation counting method. The series is classed as cell-based.
Series [4] can be described thus: Cytotoxicity against human HT-29 cells assessed as cell growth inhibition at 10 uM after 72 hrs by MTS assay. The conditions noted are these: read-out: GI. The series is classed as cell-based.
Series [5] has as its target T1, Cannabinoid receptor 2. Put plainly: Neutral antagonist activity at human CB2 assessed as restoration of forskolin-induced cAMP formation preincubated for 15 mins followed by forskolin addition for 30 mins measured after 1 hr by HTRF assay. The format is functional.
The species entered for the next series is Homo sapiens. Put plainly: Selectivity index, ratio of Ki for human CB1 to Ki for human CB2.
Series [6] in a line: Intrinsic clearance in CD1 mouse liver microsomes at 1 uM up to 40 mins by UPLC-MS/MS analysis. The format is ADME, microsome. To be noted: read-out: CLH. For orientation: Microsomes from liver hold many membrane-bound enzymes, among them those of drug oxidation.
A short description of series [7]: Half life in CD1 mouse liver microsomes at 1 uM up to 40 mins by UPLC-MS/MS analysis. The format is ADME, microsome.
The target of series [8] is T1, Cannabinoid receptor 2. Nature of the series: Neutral antagonist activity at human CB2 assessed as inhibition of WIN552122-induced suppression of cAMP formation preincubated for 15 mins followed by forskolin addition for 30 mins measured after 1 hr by HTRF assay. The format is functional.
A short description of series [9]: Half life in CD1 mouse liver microsomes at 200 nM up to 40 mins by UPLC-MS/MS analysis. The series is classed as ADME, microsome.
The nature of series [10]: Intrinsic clearance in CD1 mouse liver microsomes at 200 nM up to 40 mins by UPLC-MS/MS analysis. The series is classed as ADME, microsome. To be noted: read-out: CLH.

T1 sequence (P34972 whole entry): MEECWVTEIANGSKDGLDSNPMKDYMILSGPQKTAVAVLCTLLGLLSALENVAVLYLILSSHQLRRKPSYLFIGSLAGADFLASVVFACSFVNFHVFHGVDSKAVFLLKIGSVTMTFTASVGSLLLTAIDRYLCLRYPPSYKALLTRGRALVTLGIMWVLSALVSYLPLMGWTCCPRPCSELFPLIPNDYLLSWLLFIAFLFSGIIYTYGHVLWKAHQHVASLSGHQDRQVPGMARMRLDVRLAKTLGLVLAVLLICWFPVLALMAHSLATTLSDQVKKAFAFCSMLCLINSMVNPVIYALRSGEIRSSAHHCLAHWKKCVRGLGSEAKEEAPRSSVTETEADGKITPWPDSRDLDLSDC

One may read the Ki as a measure of affinity in units of concentration, obtained from inhibition or displacement. Low values mean tighter binding, high ones weaker binding. In the case of `Clc1ccccc1-c1nc2c(NCC3CCNCC3)ncnc2o1`, the figures for the inhibition at 72 h, 10 µM in [1], in series [2] and in series [4] were 9%, 0% and 41%, respectively. Besides, the Ki on Cannabinoid receptor 1 and on Cannabinoid receptor 2 [3] was > 1000 nM throughout.

The IC50 is the point on the concentration scale where inhibition reaches its midpoint. One may read the half-life as how long it takes for the measured level to halve. Consider `Cc1nc(N2CCN(C)CC2)c2nc(-c3ccccc3Cl)oc2n1`, for which the IC50 at Cannabinoid receptor 2 [5] and on Cannabinoid receptor 2 [8] was 930 nM in each case. In addition, the inhibition at 72 h, 10 µM in series [1] worked out at 4%; in series [2], 0%; in [4] it was 24%. For the same molecule, the Ratio Ki in the series filed under Homo sapiens was > 36.3. Moreover, the microsomal CLint at 1 µM in series [6] amounted to 502 µL/min/mg. For the same molecule, the half-life at 1 µM in series [7] is 4.1 min. The Ki on Cannabinoid receptor 1 is > 1000 nM; on Cannabinoid receptor 2 [3] it was 27.5 nM.

`CCCCNc1ncnc2oc(-c3ccccc3Cl)nc12`: the figures for the inhibition at 72 h, 10 µM in series [1], in series [2] and in [4] were 18%, 0% and 0%, respectively. The Ki on Cannabinoid receptor 1 and on Cannabinoid receptor 2 [3] was > 1000 nM throughout.

Regarding `CCN1CCN(c2nc(C)nc3oc(-c4ccccc4Cl)nc23)CC1`, the half-maximal inhibitory concentration (IC50) at Cannabinoid receptor 2 [5] and at Cannabinoid receptor 2 [8] was 120 nM throughout. Further, the inhibition at 72 h, 10 µM in [1] was 16%; in [2], 0%; in series [4], 16%. Besides, the Ratio Ki in the series filed under Homo sapiens amounted to 12.7. In series [6], the microsomal CLint at 1 µM came out at 263 µL/min/mg. For the same molecule, the half-life at 1 µM in series [7] was 8.1 min. Also, the Ki at Cannabinoid receptor 1 turned out to be 293 nM; at Cannabinoid receptor 2 [3], 23 nM.

Turning to `CCN1CCN(c2ncnc3oc(-c4ccccc4)nc23)CC1`, the inhibition at 72 h, 10 µM in [1], in series [2] and in [4] was 0% each time. The Ki at Cannabinoid receptor 1 and on Cannabinoid receptor 2 [3] was > 1000 nM in each case.

Regarding `CC(=O)N1CCN(c2ncnc3oc(-c4ccccc4C(F)(F)F)nc23)CC1`, the inhibition at 72 h, 10 µM in [1] turned out to be 1%; in [2], 12%; in series [4], 12%. Moreover, the Ratio Ki in the series filed under Homo sapiens was > 3.9. The microsomal CLint at 1 µM in series [6] was determined as 174 µL/min/mg. This molecule also had a half-life at 1 µM in series [7] of 12.5 min. Further, the inhibition constant Ki at Cannabinoid receptor 1 was > 1000 nM; at Cannabinoid receptor 2 [3] it was 254 nM.

In the case of `CC(=O)N1CCN(c2ncnc3oc(-c4ccccc4Cl)nc23)CC1`, the half-life at 0.2 µM in series [9] worked out at 12.2 min. The results for the inhibition at 72 h, 10 µM in [1], in series [2] and in series [4] were 11%, 23% and 0%, respectively. The Ratio Ki in the series filed under Homo sapiens is > 1.4. The microsomal CLint at 0.2 µM in series [10] worked out at 194 µL/min/mg. Moreover, the Ki is > 1000 nM at Cannabinoid receptor 1 and 678 nM at Cannabinoid receptor 2 [3].

Turning to `CN1CCN(c2ncnc3oc(-c4ccccc4F)nc23)CC1`, the inhibition at 72 h, 10 µM in series [1] came to 7%; in series [2], 8%; in [4] it was 0%. The Ki at Cannabinoid receptor 1 and on Cannabinoid receptor 2 [3] was > 1000 nM each time.

For `COCCNc1ncnc2oc(-c3ccccc3Cl)nc12`, the inhibition at 72 h, 10 µM in [1], in [2] and in series [4] was 0% in each case. The Ki on Cannabinoid receptor 1 and at Cannabinoid receptor 2 [3] was > 1000 nM in each case.

With `CCN1CCN(c2ncnc3oc(-c4ccccc4F)nc23)CC1`, the inhibition at 72 h, 10 µM in series [1] is 8%; in series [2], 10%; in series [4], 24%. For the same molecule, the Ki on Cannabinoid receptor 1 and on Cannabinoid receptor 2 [3] was > 1000 nM throughout.

On to `CCN1CCN(c2ncnc3oc(-c4ccccc4Cl)nc23)CC1`, for which the inhibition at 72 h, 10 µM in series [1] was 9%; in [2], 1%; in [4] it was 4%. The Ratio Ki in the series filed under Homo sapiens is > 3. Further, the microsomal CLint at 1 µM in series [6] was determined as 1100 µL/min/mg. Moreover, in series [7], the half-life at 1 µM turned out to be 1.2 min. Further, the Ki at Cannabinoid receptor 1 is > 1000 nM; at Cannabinoid receptor 2 [3], 329 nM.

As to `CCCCCNc1ncnc2oc(-c3ccccc3Cl)nc12`, the values for the inhibition at 72 h, 10 µM in series [1], in [2] and in series [4] were 13%, 6% and 10%, respectively. Besides, the Ki at Cannabinoid receptor 1 and at Cannabinoid receptor 2 [3] was > 1000 nM throughout.

For `CN1CCN(c2ncnc3oc(-c4ccccc4)nc23)CC1`, the inhibition at 72 h, 10 µM in series [1], in series [2] and in series [4] was 0% each time. Besides, the Ki at Cannabinoid receptor 1 and on Cannabinoid receptor 2 [3] was > 1000 nM each time.

In the case of `CCN1CCN(c2nc(C)nc3[nH]c(-c4ccccc4Cl)nc23)CC1`, the inhibition at 72 h, 10 µM was 0% in [1], 30% in series [2] and 0% in series [4]. Further, the microsomal CLint at 1 µM in series [6] is 54 µL/min/mg. The same molecule showed a half-life at 1 µM in [7] of 44 min.

`CN1CCN(c2ncnc3oc(-c4ccccc4C(F)(F)F)nc23)CC1`: the inhibition at 72 h, 10 µM in [1] is 0%; in [2] it was 3%; in series [4], 0%. Besides, the Ratio Ki in the series listed under Homo sapiens is > 6.4. In addition, the microsomal CLint at 1 µM in series [6] came out at 1260 µL/min/mg. The molecule further registered a half-life at 1 µM in series [7] of 0.9 min. For the same molecule, the inhibitory constant (Ki) is > 1000 nM on Cannabinoid receptor 1 and 155 nM on Cannabinoid receptor 2 [3].

Consider `CN1CCN(c2ncnc3oc(-c4ccccc4Cl)nc23)CC1`, for which the half-life at 0.2 µM in series [9] worked out at 1.3 min. Moreover, the inhibition at 72 h, 10 µM in series [1] amounted to 0%; in [2], 0%; in series [4], 8%. Besides, the Ratio Ki in the series listed under Homo sapiens was > 2.8. Further, the microsomal CLint at 0.2 µM in series [10] was 1180 µL/min/mg. Besides, the values for the Ki at Cannabinoid receptor 1 and at Cannabinoid receptor 2 [3] were > 1000 nM and 350 nM, respectively.

Turning to `Clc1ccccc1-c1nc2c(N3CCOCC3)ncnc2o1`, the figures for the inhibition at 72 h, 10 µM in series [1], in series [2] and in series [4] were 10%, 0% and 5%, respectively. For the same molecule, the Ki at Cannabinoid receptor 1 and on Cannabinoid receptor 2 [3] was > 1000 nM in each case.

For `CCCN1CCN(c2ncnc3oc(-c4ccccc4Cl)nc23)CC1`, the inhibition at 72 h, 10 µM in [1] was 2%; in series [2], 0%; in series [4], 0%. In addition, the inhibitory constant (Ki) at Cannabinoid receptor 1 and on Cannabinoid receptor 2 [3] was > 1000 nM throughout.

In the case of `Clc1ccccc1-c1nc2c(NCC3CCCCC3)ncnc2o1`, the values for the inhibition at 72 h, 10 µM in series [1], in series [2] and in [4] were 10%, 0% and 0%, respectively. The Ki on Cannabinoid receptor 1 and at Cannabinoid receptor 2 [3] was > 1000 nM each time.

On to `COc1ccc(C(=O)c2c(C)n(CCN3CCOCC3)c3cc(I)ccc23)cc1`, for which the inhibition at 72 h, 10 µM in series [1], in series [2] and in series [4] was 0% in each case. This molecule also displayed a Ki on Cannabinoid receptor 2 [3] of 91 nM.

For the molecule `CCN1CCN(c2ncnc3oc(-c4ccccc4C(F)(F)F)nc23)CC1`, the inhibition at 72 h, 10 µM in series [1] is 5%; in [2] it was 10%; in series [4], 1%. Also, the Ratio Ki in the series filed under Homo sapiens is > 10.4. In addition, the microsomal CLint at 1 µM in [6] amounted to 1240 µL/min/mg. In [7], this molecule registered a half-life at 1 µM of 1 min. The figures for the Ki on Cannabinoid receptor 1 and on Cannabinoid receptor 2 [3] were > 1000 nM and 95.5 nM, respectively.

Source of the values: ChEMBL document CHEMBL4145495, “Development of novel oxazolo[5,4-d]pyrimidines as competitive CB2 neutral antagonists based on scaffold hopping” (Eur J Med Chem, 2018).
